According to PubChem BioAssay (NCI):
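Where inhibition never reached the appropriate level, the endpoint shown equals the highest concentration tested. Otherwise, values were interpolated linearly from a five-concentration, 48-hour dose response in 96-well plates. GI50 marks 50% less growth. TGI: total growth inhibition.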

What was measured:
Assay in all cases: growth of human tumour cells (NCI), 48 h; in the data active = GI50 below about 0.43 µM; inactive = the rest
786-0 renal = system: 786-0 renal
A498 renal = system: A498 renal
A549 NSCLC = system: A549 NSCLC
ACHN renal = system: ACHN renal
BT-549 breast = system: BT-549 breast
CAKI-1 renal = system: CAKI-1 renal
CCRF-CEM leukemia = system: CCRF-CEM leukemia
COLO 205 colon = system: COLO 205 colon
DU-145 prostate = system: DU-145 prostate
EKVX NSCLC = system: EKVX NSCLC
HCC-2998 colon = system: HCC-2998 colon
HCT-116 colon = system: HCT-116 colon
HCT-15 colon = system: HCT-15 colon
HL-60(TB) leukemia = system: HL-60(TB) leukemia
HOP-62 NSCLC = system: HOP-62 NSCLC
HOP-92 NSCLC = system: HOP-92 NSCLC
HS 578T breast = system: HS 578T breast
HT29 colon = system: HT29 colon
IGROV1 ovarian = system: IGROV1 ovarian
K-562 leukemia = system: K-562 leukemia
KM12 colon = system: KM12 colon
LOX IMVI melanoma = system: LOX IMVI melanoma
M14 melanoma = system: M14 melanoma
MALME-3M melanoma = system: MALME-3M melanoma
MCF7 breast = system: MCF7 breast
MDA-MB-231 breast = system: MDA-MB-231 breast
MDA-MB-435 = system: MDA-MB-435
MOLT-4 leukemia = system: MOLT-4 leukemia
NCI-H23 lung = system: NCI-H23 lung
NCI-H460 lung = system: NCI-H460 lung
NCI-H522 lung = system: NCI-H522 lung
NCI/ADR-RES ovarian = system: NCI/ADR-RES ovarian
OVCAR-3 ovarian = system: OVCAR-3 ovarian
OVCAR-4 ovarian = system: OVCAR-4 ovarian
OVCAR-5 ovarian = system: OVCAR-5 ovarian
OVCAR-8 ovarian = system: OVCAR-8 ovarian
PC-3 prostate = system: PC-3 prostate
RPMI-8226 leukemia = system: RPMI-8226 leukemia
RXF 393 renal = system: RXF 393 renal
SF-268 CNS = system: SF-268 CNS
SF-295 CNS = system: SF-295 CNS
SF-539 CNS = system: SF-539 CNS
SK-MEL-2 melanoma = system: SK-MEL-2 melanoma
SK-MEL-28 melanoma = system: SK-MEL-28 melanoma
SK-MEL-5 melanoma = system: SK-MEL-5 melanoma
SK-OV-3 ovarian = system: SK-OV-3 ovarian
SN12C renal = system: SN12C renal
SNB-19 CNS = system: SNB-19 CNS
SNB-75 CNS = system: SNB-75 CNS
SR leukemia = system: SR leukemia
SW-620 colon = system: SW-620 colon
T-47D breast = system: T-47D breast
TK-10 renal = system: TK-10 renal
U251 CNS = system: U251 CNS
UACC-257 melanoma = system: UACC-257 melanoma
UACC-62 melanoma = system: UACC-62 melanoma
UO-31 renal = system: UO-31 renal
NCI-H226 lung = system: NCI-H226 lung

O=C1/C=C/[C@@H](O)[C@@H]2C[C@@H](O)C[C@H]2/C=C/CCC[C@H](CCc2ccc3ncccc3c2)O1
> 100000 nM: TGI (DU-145 prostate) | TGI (HOP-92 NSCLC) | TGI (HS 578T breast) | TGI (K-562 leukemia) | TGI (MCF7 breast) | TGI (OVCAR-3 ovarian) | TGI (OVCAR-5 ovarian) | TGI (SF-268 CNS) | TGI (SF-295 CNS) | TGI (SF-539 CNS) | TGI (SN12C renal) | TGI (SNB-19 CNS) | TGI (U251 CNS)
> 32100 nM: TGI (SK-OV-3 ovarian)
5890 nM: TGI (RPMI-8226 leukemia)
16200 nM: TGI (BT-549 breast)
14500 nM: TGI (HCT-15 colon)
> 29800 nM: TGI (SNB-75 CNS)
6500 nM: TGI (SR leukemia)
555 nM: TGI (HT29 colon)
13300 nM: TGI (MDA-MB-435)
419 nM: TGI (RXF 393 renal)
691 nM: TGI (HL-60(TB) leukemia)
> 29700 nM: TGI (ACHN renal)
> 57900 nM: TGI (A549 NSCLC)
5950 nM: TGI (UACC-257 melanoma)
4990 nM: TGI (HCC-2998 colon)
active: GI50 (786-0 renal) 218 nM | GI50 (A498 renal) 100 nM | GI50 (A549 NSCLC) 308 nM | GI50 (ACHN renal) 388 nM | GI50 (BT-549 breast) 402 nM | GI50 (CAKI-1 renal) 282 nM | GI50 (CCRF-CEM leukemia) 306 nM | GI50 (COLO 205 colon) 190 nM | GI50 (EKVX NSCLC) 289 nM | GI50 (HCC-2998 colon) 252 nM | GI50 (HCT-116 colon) 245 nM | GI50 (HCT-15 colon) 337 nM | GI50 (HL-60(TB) leukemia) 268 nM | GI50 (HOP-62 NSCLC) 317 nM | GI50 (HT29 colon) 90.5 nM | GI50 (IGROV1 ovarian) 394 nM | GI50 (K-562 leukemia) 386 nM | GI50 (KM12 colon) 175 nM | GI50 (LOX IMVI melanoma) 152 nM | GI50 (M14 melanoma) 327 nM | GI50 (MALME-3M melanoma) 208 nM | GI50 (MCF7 breast) 270 nM | GI50 (MDA-MB-231 breast) 167 nM | GI50 (MDA-MB-435) 318 nM | GI50 (MOLT-4 leukemia) 289 nM | GI50 (NCI-H23 lung) 219 nM | GI50 (NCI-H460 lung) 360 nM | GI50 (NCI-H522 lung) 212 nM | GI50 (NCI/ADR-RES ovarian) 396 nM | GI50 (OVCAR-4 ovarian) 253 nM | GI50 (OVCAR-5 ovarian) 420 nM | GI50 (OVCAR-8 ovarian) 275 nM | GI50 (PC-3 prostate) 313 nM | GI50 (RPMI-8226 leukemia) 243 nM | GI50 (RXF 393 renal) 94.5 nM | GI50 (SF-268 CNS) 322 nM | GI50 (SF-295 CNS) 351 nM | GI50 (SK-MEL-2 melanoma) 266 nM | GI50 (SK-MEL-28 melanoma) 63.7 nM | GI50 (SK-MEL-5 melanoma) 56.7 nM | GI50 (SK-OV-3 ovarian) 336 nM | GI50 (SN12C renal) 334 nM | GI50 (SNB-19 CNS) 400 nM | GI50 (SNB-75 CNS) 101 nM | GI50 (SR leukemia) 296 nM | GI50 (SW-620 colon) 265 nM | GI50 (T-47D breast) 312 nM | GI50 (TK-10 renal) 265 nM | GI50 (U251 CNS) 347 nM | GI50 (UACC-257 melanoma) 130 nM | GI50 (UACC-62 melanoma) 303 nM | GI50 (UO-31 renal) 299 nM
inactive: GI50 (DU-145 prostate) 564 nM | GI50 (HOP-92 NSCLC) 2770 nM | GI50 (HS 578T breast) 1230 nM | GI50 (OVCAR-3 ovarian) 518 nM | GI50 (SF-539 CNS) 495 nM
821 nM: TGI (TK-10 renal)
8400 nM: TGI (CCRF-CEM leukemia)
1540 nM: TGI (MOLT-4 leukemia)
> 46800 nM: TGI (NCI-H460 lung)
837 nM: TGI (SK-MEL-28 melanoma)
693 nM: TGI (HCT-116 colon)
343 nM: TGI (COLO 205 colon)
768 nM: TGI (SW-620 colon)
1180 nM: TGI (NCI-H23 lung)
333 nM: TGI (LOX IMVI melanoma)
18300 nM: TGI (M14 melanoma)
20000 nM: TGI (UO-31 renal)
9050 nM: TGI (NCI/ADR-RES ovarian)
> 36000 nM: TGI (PC-3 prostate)
162 nM: TGI (SK-MEL-5 melanoma)
8440 nM: TGI (UACC-62 melanoma)
> 47000 nM: TGI (OVCAR-8 ovarian)
523 nM: TGI (NCI-H522 lung)
678 nM: TGI (MALME-3M melanoma)
> 34000 nM: TGI (IGROV1 ovarian)
504 nM: TGI (786-0 renal)
> 64900 nM: TGI (EKVX NSCLC)
8100 nM: TGI (T-47D breast)
373 nM: TGI (MDA-MB-231 breast)
654 nM: TGI (SK-MEL-2 melanoma)

Clc1cc2ccccc2c2ccccc12
> 100000 nM: TGI (786-0 renal) | TGI (A498 renal) | TGI (A549 NSCLC) | TGI (ACHN renal) | TGI (CAKI-1 renal) | TGI (CCRF-CEM leukemia) | TGI (COLO 205 colon) | TGI (DU-145 prostate) | TGI (EKVX NSCLC) | TGI (HCC-2998 colon) | TGI (HCT-116 colon) | TGI (HCT-15 colon) | TGI (HL-60(TB) leukemia) | TGI (HOP-62 NSCLC) | TGI (HS 578T breast) | TGI (HT29 colon) | TGI (IGROV1 ovarian) | TGI (K-562 leukemia) | TGI (KM12 colon) | TGI (LOX IMVI melanoma) | TGI (M14 melanoma) | TGI (MALME-3M melanoma) | TGI (MCF7 breast) | TGI (MDA-MB-231 breast) | TGI (MDA-MB-435) | TGI (MOLT-4 leukemia) | TGI (NCI-H226 lung) | TGI (NCI-H23 lung) | TGI (NCI-H460 lung) | TGI (NCI-H522 lung) | TGI (NCI/ADR-RES ovarian) | TGI (OVCAR-3 ovarian) | TGI (OVCAR-4 ovarian) | TGI (OVCAR-5 ovarian) | TGI (OVCAR-8 ovarian) | TGI (PC-3 prostate) | TGI (RPMI-8226 leukemia) | TGI (RXF 393 renal) | TGI (SF-268 CNS) | TGI (SF-295 CNS) | TGI (SF-539 CNS) | TGI (SK-MEL-28 melanoma) | TGI (SK-MEL-5 melanoma) | TGI (SN12C renal) | TGI (SNB-19 CNS) | TGI (SNB-75 CNS) | TGI (SR leukemia) | TGI (SW-620 colon) | TGI (T-47D breast) | TGI (TK-10 renal) | TGI (U251 CNS) | TGI (UACC-257 melanoma) | TGI (UACC-62 melanoma) | TGI (UO-31 renal)
73300 nM: TGI (SK-MEL-2 melanoma)
96700 nM: TGI (BT-549 breast)
87300 nM: TGI (HOP-92 NSCLC)
